Activity calls are given as the source filed them.
Assays:
[1] = biological target: T1, High affinity choline transporter 1 (Homo sapiens, UniProt Q9GZV3); assay: CHT inhibitors, dose response, cell-based, 5-point CRC, membrane potential dye (AID 504840); type: functional
T1 sequence (Q9GZV3 whole entry): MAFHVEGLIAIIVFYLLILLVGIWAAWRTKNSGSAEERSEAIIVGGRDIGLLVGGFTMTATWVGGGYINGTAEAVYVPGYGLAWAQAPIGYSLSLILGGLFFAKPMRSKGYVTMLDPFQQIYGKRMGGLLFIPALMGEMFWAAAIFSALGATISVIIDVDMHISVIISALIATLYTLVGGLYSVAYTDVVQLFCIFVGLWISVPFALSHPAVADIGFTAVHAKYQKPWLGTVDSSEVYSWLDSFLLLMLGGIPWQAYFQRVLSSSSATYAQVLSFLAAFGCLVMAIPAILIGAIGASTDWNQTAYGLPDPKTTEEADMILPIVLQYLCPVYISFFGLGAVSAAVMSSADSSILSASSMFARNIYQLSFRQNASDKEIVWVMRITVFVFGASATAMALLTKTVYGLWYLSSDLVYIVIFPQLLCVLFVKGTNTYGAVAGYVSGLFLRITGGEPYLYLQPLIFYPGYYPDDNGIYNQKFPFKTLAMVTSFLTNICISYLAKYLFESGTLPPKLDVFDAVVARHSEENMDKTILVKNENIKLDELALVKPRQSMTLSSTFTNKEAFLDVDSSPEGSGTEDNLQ

[2] = biological target: T2, Corticotropin-releasing factor receptor 2/Corticotropin-releasing factor-binding protein (Homo sapiens, UniProt P24387+Q13324); assay: activators of CRF receptor 2 with binding protein – uHTS hits, confirmation (AID 602473); type: functional; details: read-out: EC50_Mean
T2 sequence (Q13324 whole entry): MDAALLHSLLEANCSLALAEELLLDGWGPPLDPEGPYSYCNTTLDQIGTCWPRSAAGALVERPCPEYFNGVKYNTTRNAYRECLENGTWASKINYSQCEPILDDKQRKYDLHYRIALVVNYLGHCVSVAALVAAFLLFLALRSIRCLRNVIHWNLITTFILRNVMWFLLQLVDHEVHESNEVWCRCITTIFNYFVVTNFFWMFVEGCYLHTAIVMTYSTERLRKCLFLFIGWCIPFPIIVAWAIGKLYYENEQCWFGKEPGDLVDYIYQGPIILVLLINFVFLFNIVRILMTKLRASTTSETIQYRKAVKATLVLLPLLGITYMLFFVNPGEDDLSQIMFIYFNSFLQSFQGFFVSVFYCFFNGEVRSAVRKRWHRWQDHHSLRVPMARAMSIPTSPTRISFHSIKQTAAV
T2 sequence (P24387 whole entry): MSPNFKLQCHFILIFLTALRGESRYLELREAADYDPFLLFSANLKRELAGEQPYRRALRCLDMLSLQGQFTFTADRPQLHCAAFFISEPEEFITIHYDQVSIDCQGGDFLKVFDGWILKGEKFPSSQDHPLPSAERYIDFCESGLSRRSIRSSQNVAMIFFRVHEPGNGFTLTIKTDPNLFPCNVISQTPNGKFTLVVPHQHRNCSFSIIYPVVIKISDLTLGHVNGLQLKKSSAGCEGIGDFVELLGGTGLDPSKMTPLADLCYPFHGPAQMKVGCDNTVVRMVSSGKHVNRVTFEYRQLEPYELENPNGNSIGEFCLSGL

[3] = biological target: T3, Calpain-2 catalytic subunit (Sus scrofa, UniProt P43367); assay: pig calpain II inhibitor potency, dose response, biochemical, fluorogenic peptide substrate (AID 1420); type: functional
T3 sequence (P43367 whole entry): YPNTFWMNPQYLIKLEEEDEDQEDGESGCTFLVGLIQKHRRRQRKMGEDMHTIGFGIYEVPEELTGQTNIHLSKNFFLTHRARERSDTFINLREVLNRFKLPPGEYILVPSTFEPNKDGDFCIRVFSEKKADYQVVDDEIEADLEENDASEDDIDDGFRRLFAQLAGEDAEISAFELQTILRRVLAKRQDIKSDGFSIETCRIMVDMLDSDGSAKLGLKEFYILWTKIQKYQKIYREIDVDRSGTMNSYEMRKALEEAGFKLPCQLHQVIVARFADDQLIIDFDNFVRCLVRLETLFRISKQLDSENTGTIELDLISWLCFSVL

H9c2 = assay: cells; type: functional, cell-based; details: Rattus norvegicus, H9c2, Myocardium;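 further: confirmatory concentration-response retest of ultra-high-throughput screening hits for modulation of myocardial damage; cell death induced by hydrogen peroxide oxidative stress; compound pretreatment for 60 min then peroxide exposure for 2 h; potency is for protecting the cells against peroxide damage rather than for killing them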
[4] = P. falciparum Dd2 growth inhibitors, dose response, SYBR Green, cherry-picked samples (AID 1159567); type: functional, cell-based
[5] = inhibitors of SNCA 5'UTR-driven reporter translation, confirmation, H4 neuroglioma cells, luminescence (AID 1988); type: functional, cell-based
[6] = biological target: T4, RNA-binding protein pos-1 (Caenorhabditis elegans, UniProt G5EF15); assay: inhibitors of POS-1/mex-3 RNA binding, dose response, biochemical, fluorescence polarization (AID 1964);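 further: purified POS-1 fused to maltose binding protein made in E. coli; potency of compounds blocking POS-1 binding to fluorescent RNA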
T4 sequence (G5EF15 whole entry): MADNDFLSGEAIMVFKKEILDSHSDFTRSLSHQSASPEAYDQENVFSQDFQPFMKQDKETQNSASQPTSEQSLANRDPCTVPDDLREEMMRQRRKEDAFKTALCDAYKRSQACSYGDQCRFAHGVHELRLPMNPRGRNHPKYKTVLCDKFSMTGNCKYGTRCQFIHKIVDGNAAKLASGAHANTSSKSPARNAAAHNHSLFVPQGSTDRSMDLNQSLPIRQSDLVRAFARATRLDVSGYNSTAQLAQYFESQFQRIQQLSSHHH

[7] = biological target: T5, Zinc finger protein mex-5 (Caenorhabditis elegans, UniProt Q9XUB2); assay: MEX-5/TCR-2 RNA interaction inhibitors, dose response, biochemical, C. elegans, fluorescence polarization (AID 1960)
T5 sequence (Q9XUB2 whole entry): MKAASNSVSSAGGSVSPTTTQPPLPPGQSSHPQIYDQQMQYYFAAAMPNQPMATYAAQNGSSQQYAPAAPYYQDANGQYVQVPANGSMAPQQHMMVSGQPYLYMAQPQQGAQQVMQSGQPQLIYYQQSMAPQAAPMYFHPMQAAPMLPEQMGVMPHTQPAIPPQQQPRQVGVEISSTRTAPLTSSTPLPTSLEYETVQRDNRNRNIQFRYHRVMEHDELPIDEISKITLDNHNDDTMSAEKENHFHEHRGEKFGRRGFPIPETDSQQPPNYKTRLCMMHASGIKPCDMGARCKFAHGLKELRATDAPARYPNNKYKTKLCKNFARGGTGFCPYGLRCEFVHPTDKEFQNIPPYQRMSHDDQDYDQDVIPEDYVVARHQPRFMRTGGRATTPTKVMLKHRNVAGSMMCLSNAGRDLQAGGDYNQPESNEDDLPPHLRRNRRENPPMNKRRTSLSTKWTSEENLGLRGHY

Genome polyprotein = Genome polyprotein (dengue virus type 2, UniProt P29990); assay: Dengue-2 NS5 methyltransferase inhibitors, primary screen, biochemical, confirmation dose response (AID 588689); type: functional
[8] = Luminescence Cell-Based Dose Response HTS to Identify Inhibitors of 5'UTR Stem-Loop Driven Prion Protein mRNA Translation in H4 Neuroglioblastoma Cells. [Related pubchem assays: 1827 (Project Summary), 1813 (Primary HTS)]; type: functional
[9] = inhibitors of firefly luciferase expression or activity, dose response, H4 neuroglioma cells, luminescence (AID 1990); type: functional, cell-based
Nonstructural protein 1 = Nonstructural protein 1 (Influenza A virus, UniProt Q194T2); type: functional, Influenza A virus (A/California/07/2009(H1N1))
Vero = assay: cells; type: functional; details: Chlorocebus sabaeus
HEK293 = assay: inhibitors of LMP1-driven NF-kB reporter, dose response, cell-based, HEK293, luciferase, cherry-pick (AID 588343); type: functional; details: Homo sapiens
Cytochrome P450 1A2 = biological target: T6, Cytochrome P450 1A2 (Homo sapiens, UniProt P05177);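 further: PubChem cytochrome P450 panel assay, CYP1A2 panel member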
T6 sequence (P05177 whole entry): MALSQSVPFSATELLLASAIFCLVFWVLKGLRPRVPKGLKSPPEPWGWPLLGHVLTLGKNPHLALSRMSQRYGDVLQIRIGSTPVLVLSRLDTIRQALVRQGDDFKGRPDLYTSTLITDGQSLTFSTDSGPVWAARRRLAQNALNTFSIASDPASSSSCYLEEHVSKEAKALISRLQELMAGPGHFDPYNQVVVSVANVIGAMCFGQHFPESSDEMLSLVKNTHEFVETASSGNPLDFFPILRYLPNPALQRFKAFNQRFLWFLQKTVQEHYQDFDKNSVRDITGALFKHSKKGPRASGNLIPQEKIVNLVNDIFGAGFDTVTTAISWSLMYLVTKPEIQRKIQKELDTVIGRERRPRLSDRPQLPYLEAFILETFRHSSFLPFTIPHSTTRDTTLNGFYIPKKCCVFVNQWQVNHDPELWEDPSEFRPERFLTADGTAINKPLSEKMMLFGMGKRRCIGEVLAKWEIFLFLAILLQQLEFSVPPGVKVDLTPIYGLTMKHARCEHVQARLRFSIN

Cytochrome P450 2C9 = Cytochrome P450 2C9 (Homo sapiens, UniProt P11712)
Cytochrome P450 2C19 = Cytochrome P450 2C19 (Homo sapiens, UniProt P33261); assay: Cytochrome panel assay with activity outcomes. Panel member name: p450-cyp2c19 Compounds with AC50 equal or less than 10 uM are considered active; type: functional; details: read-out: AC50
[10] = microbe, parasite or virus in culture; type: functional; details: Mycobacterium tuberculosis
[11] = Shn3 3'UTR reporter inhibitors, dose response, cell-based, Clone20 osteoblasts, firefly luciferase, cherry-picked (AID 624132); type: functional;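 further: firefly luciferase luminescence from reporter carrying the Shn3 3'UTR in osteoblasts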
[12] = control 3'UTR Renilla luciferase suppression, dose response, counter-screen for Shn3 inhibitor project, cell-based, Clone20-Shn3RL, cherry-picked (AID 624133); type: functional

Sequence of Nonstructural protein 1 (Q194T2 whole entry): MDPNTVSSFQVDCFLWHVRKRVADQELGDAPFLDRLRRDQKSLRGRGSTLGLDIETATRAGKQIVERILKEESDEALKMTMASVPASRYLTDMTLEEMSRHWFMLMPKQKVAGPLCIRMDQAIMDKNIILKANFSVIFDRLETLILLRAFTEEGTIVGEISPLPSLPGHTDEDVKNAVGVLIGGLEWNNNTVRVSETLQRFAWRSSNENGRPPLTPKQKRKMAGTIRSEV
Sequence of Genome polyprotein (P29990 2492-3391 limits assumed): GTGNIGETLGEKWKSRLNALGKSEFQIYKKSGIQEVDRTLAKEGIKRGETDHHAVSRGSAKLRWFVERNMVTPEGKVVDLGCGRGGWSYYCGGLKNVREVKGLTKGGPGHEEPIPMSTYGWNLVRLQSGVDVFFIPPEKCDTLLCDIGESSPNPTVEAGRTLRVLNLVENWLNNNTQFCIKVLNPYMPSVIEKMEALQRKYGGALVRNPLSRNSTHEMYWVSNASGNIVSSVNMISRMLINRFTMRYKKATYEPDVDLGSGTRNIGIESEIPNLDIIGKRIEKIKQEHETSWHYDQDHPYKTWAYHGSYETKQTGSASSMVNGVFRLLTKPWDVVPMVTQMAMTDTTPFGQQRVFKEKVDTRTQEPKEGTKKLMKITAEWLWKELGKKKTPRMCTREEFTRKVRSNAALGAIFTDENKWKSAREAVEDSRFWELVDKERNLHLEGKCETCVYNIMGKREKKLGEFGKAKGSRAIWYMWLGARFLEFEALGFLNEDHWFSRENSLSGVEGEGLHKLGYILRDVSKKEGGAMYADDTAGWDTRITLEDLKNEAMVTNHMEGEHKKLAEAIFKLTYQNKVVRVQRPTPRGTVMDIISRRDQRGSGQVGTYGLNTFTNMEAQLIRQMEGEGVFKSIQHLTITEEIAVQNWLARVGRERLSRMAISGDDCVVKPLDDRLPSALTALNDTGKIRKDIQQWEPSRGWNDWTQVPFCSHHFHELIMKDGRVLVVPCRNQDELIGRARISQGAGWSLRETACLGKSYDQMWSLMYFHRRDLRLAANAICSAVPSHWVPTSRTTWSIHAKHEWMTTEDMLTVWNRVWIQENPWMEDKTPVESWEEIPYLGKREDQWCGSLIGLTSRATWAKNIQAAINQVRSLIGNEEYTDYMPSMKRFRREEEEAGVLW
Sequence of Cytochrome P450 2C9 (P11712 whole entry): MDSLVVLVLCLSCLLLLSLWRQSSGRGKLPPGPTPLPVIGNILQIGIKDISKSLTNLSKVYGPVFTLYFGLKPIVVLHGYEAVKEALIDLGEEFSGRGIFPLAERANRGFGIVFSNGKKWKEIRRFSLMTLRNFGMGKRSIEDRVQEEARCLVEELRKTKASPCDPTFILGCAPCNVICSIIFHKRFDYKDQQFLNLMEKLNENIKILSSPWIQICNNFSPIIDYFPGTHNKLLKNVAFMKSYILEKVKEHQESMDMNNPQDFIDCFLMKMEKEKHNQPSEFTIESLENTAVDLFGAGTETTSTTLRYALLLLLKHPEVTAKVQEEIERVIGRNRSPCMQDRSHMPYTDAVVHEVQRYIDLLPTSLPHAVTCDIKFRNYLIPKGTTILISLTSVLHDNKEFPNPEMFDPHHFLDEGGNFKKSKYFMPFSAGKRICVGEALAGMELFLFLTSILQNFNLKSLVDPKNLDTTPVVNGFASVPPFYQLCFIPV
Sequence of Cytochrome P450 2C19 (P33261 whole entry): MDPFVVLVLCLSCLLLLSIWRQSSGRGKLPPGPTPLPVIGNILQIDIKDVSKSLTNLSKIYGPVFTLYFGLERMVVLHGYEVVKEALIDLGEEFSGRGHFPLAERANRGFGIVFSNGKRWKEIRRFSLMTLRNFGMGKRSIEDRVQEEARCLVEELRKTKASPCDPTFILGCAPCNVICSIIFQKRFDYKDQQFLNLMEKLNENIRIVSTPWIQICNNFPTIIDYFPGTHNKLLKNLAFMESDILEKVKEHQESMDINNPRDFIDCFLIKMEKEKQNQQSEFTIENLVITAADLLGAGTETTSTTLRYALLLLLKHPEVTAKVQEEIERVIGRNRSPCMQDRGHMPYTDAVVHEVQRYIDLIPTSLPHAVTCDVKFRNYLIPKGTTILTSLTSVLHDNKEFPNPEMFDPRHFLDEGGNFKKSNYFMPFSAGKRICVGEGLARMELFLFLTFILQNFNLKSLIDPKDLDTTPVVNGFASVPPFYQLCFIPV

CCN(CC)c1[nH]cnc2c3ccccc3nc1-2
IC50 [1]: 13.8 µM (active)

COc1ccc(C2=CC(c3ccc(C)cc3)n3nnnc3N2)cc1 (configuration not stated)
EC50 [2]: > 53 µM (inactive)

CCOC(=O)c1c(NC(=O)C(C)Sc2cccc[n+]2[O-])sc2c1CCN(Cc1ccccc1)C2 (configuration not stated)
EC50 [2]: 4.81 µM (active)

CC(=O)Nc1ccc(NC(=O)Cc2ccc(S(=O)(=O)N3CCCCC3)s2)cc1
IC50 [3]: 2.64 µM (not active)

CCn1c(SCC(=O)Nc2ccccc2N2CCCCC2)nc2c1c(=O)n(C)c(=O)n2C
IC50 (H9c2): > 79 µM (inactive)

O=C(Nc1ccccc1F)N1CC(=O)N2[C@H](CO)[C@@H](c3ccc(-c4ccccc4)cc3)[C@H]2C1
AC50 [4]: 14.5 µM (active)

CCC(C(=O)OCC(=O)Nc1ccc(Cl)c(S(=O)(=O)N(C)C)c1)c1ccccc1 (configuration not stated)
IC50 [3]: 13.3 µM (not active)

CC(C)(C)OC(=O)N1CC=C2C(C#N)=C(N)C(C#N)(C#N)[C@H](c3cccnc3)[C@H]2C1
EC50 [5]: 60.3 µM (active) | EC50 [6]: 61.7 µM (active) | EC50 [7]: 54 µM (active) | IC50 (Genome polyprotein): > 100 µM (active) | EC50 [8]: > 120 µM (not active) | EC50 [9]: > 120 µM (not active)

C=CCN1C(=O)/C(=C/c2cccs2)C(=O)NC1=S
IC50 (Genome polyprotein): 43.8 µM (active)

CCCCNC(=S)NC(=O)c1ccc(Cl)cc1Cl
IC50 [3]: 4.25 µM (not active)

Oc1ccc(Cl)cc1/C=N/c1ccc(Br)cc1
IC50 (H9c2): 22.3 µM (active)

CN(C)CCn1c(=S)[nH]c2ccccc2c1=O
IC50 [1]: 13.2 µM (active)

CCCCNc1c([N+](=O)[O-])cc(C)cc1[N+](=O)[O-]
IC50 (Nonstructural protein 1): 27.1 µM (active)

Cc1nn2c(NCCCN(C)C)c3c(nc2c1-c1ccccc1)CCCC3
CC50 (Vero): > 25 µM (active)

O=C(Nc1ccc2ccccc2c1)C(=O)C1C(=O)Nc2ccccc21 (configuration not stated)
IC50 [3]: < 0.4 µM (not active)

CN(C)c1ccc(N=Nc2ccccc2C(=O)OCC(=O)N(C)c2ccccc2)cc1
IC50 (Nonstructural protein 1): 21.2 µM (active)

O=[N+]([O-])c1cccc(-c2ccc(/C=N/Nc3nc(N4CCCCC4)nc(N4CCCCC4)n3)o2)c1
AC50 (HEK293): 96.7 µM (active)

CCCS(=O)(=O)c1nc(S(=O)(=O)c2ccc(C)cc2)c(N2CCCC2)s1
EC50 [2]: > 53 µM (inactive)

CCc1ccc([C@@H]2CC=C(C(=O)O)[C@H](c3ccc(C)cc3)N2S(=O)(=O)c2ccc(C)cc2)cc1
IC50 (Genome polyprotein): 41.2 µM (active)

CC(=O)Nc1nc(CCl)cs1
IC50 [3]: > 50 µM (not active)

COc1ccc(S(=O)(=O)N2CCOCC2)cc1N=Nc1sc(N)nc1-c1ccccc1
EC50 [5]: 46.6 µM (active) | IC50 (Nonstructural protein 1): > 100 µM (active) | EC50 [8]: > 120 µM (not active) | EC50 [9]: 14.7 µM (active)

COc1ccc(-c2nn3c(-c4ccccc4)nnc3s2)cc1OC
IC50 (H9c2): > 79 µM (inactive)

CCN(CC(=O)Nc1ccc2c(c1)OCCO2)C(=O)c1cccc(S(=O)(=O)N2CCOCC2)c1
AC50 (Cytochrome P450 1A2): 12.6 µM (inconclusive) | AC50 (Cytochrome P450 2C9): 11.2 µM (inconclusive) | AC50 (Cytochrome P450 2C19): 22.4 µM (inconclusive)

CCOC(=O)CNC(=O)CSc1nc2cc(Br)c(C)nc2[nH]1
IC50 (H9c2): 24 µM (active)

c1ccc2c(C3=NN=C(NC4CCCCC4)SC3)c[nH]c2c1
CC50 [10]: > 40 µM (active) | IC50 [3]: 6.76 µM (not active)

COc1cc2c(cc1OC)CN(CC(=O)Nc1ccccc1C#N)CC2
IC50 (H9c2): 34.2 µM (inactive)

NC(=O)c1ccccc1/N=C/c1ccccn1
IC50 (H9c2): 22.4 µM (active)

CCOC(=O)N1CCN(C(=O)CSc2nc3ccccc3c(=O)n2-c2ccccc2)CC1
IC50 (H9c2): 19.5 µM (active)

CNc1nc(NN)nc(Nc2ccccc2)n1
IC50 (Nonstructural protein 1): 15 µM (active)

CCN1CCN(Cc2ccc(NC(=O)c3ccc(C)c(NC(=O)c4cccc(-c5cnnc(O)c5)c4)c3)cc2C(F)(F)F)CC1
AC50 (HEK293): 1.83 µM (active)

CC1CN(C(=O)CCc2cc(C(C)(C)C)c(O)c(C(C)(C)C)c2)CC(C)O1 (configuration not stated)
AC50 [11]: 2.56 µM (active) | AC50 [12]: 3.99 µM (active)

COc1ccc(-c2ccc3c(c2)[C@H]2[C@H](CCN2C(=O)NC2CCCC2)[C@H](CO)N3C)cc1
AC50 [4]: 5.37 µM (active)

O=C1c2ccccc2NC(c2ccc([N+](=O)[O-])cc2)N1O (configuration not stated)
IC50 (H9c2): 10.4 µM (active)

Cc1ccc(/C=N/NC(=O)CSc2nc3nc(C)cc(C)n3n2)cc1
AC50 (Cytochrome P450 1A2): 4.47 µM (inconclusive) | AC50 (Cytochrome P450 2C9): 22.4 µM (inconclusive)

— ChEMBL document CHEMBL1201862, “PubChem BioAssay data set” (2004)
